From patent US20240336577A1, “PYRAZINE COMPOUND, AND METHOD OF PREPARATION AND USE THEREOF” (SHENZHEN OLIVE BIOPHARMACEUTICALS CO., LTD, priority 2020, published 2024) come the findings set out here.

One assay has as its system 5*FAD mice. Kind of assay: Pro-inflammatory factors in hippocampus of 5*FAD mice, ELISA. It counts as in vivo. As to conditions: 6-month-old 5*FAD mice treated 3 months, low and high dosage; FIG. 3 and FIG. 4. The protocol:
After 6-month-old 5*FAD mice were treated with OLB-1 and OLB-2 for 3 months, the levels of IL-1β (A) and TNFα (B) in mouse hippocampus were detected by ELISA. 5*FAD mice were treated with low-dosage and high-dosage OLB-1 (low dosage: 2.31 mg/kg, 0.007 mmol/kg; high dosage: 11.70 mg/kg, 0.037 mmol/kg, the same below) and OLB-2 (low dosage: 2.3 mg/kg, 0.007 mmol/kg; high dosage: 11.67 mg/kg, 0.037 mmol/kg, the same below) and TMP (5.0 mg/kg, 0.037 mmol/kg, the same below). Data were presented as mean±SEM; n=5 to 6 per group. One-way ANOVA and multiple range test were adopted to show differences between the two groups. **p<0.01, ***p<0.001 vs. WT group; #p<0.05, ##p<0.01, ###p<0.001 vs. 5*FAD group.
(In general: ELISA stands for enzyme-linked immunosorbent assay.)

The subject of assay [1] is ALS (SOD-G93A) transgenic mice. Kind of assay: Pole climbing test in ALS transgenic mice. Format: in vivo. As to conditions: different dosages of OLB-1, OLB-2, riluzole 5 mg/kg, FIG. 6. An excerpt: The pole climbing test is generally used to evaluate a motor coordination ability and motor delay of the limbs in mice. A homemade wooden pole about 50 cm long and about 1 cm in diameter was wrapped with medical gauze to increase friction of the wooden pole. The wooden pole was put vertically on a horizontal table, the mouse tail was grabbed such that the mouse head was facing down, with limbs grabbing a top of the pole; after releasing the mouse tail, timing was started, and it was ensured that the mouse crawled downward without external force, and the time was recorded for the mouse to climb from the top of the pole to a bottom platform (a standard was that mouse hind limbs were landed on the ground). […] An average of the three pole climbing times of mice was calculated as a final pole climbing time. […] Data were presented as mean±SEM; n=10 per group. One-way ANOVA and multiple range test were adopted to show differences between the two groups. ***p<0.001 vs. WT (normal control) group; #p<0.05, ##p<0.01 vs. ALS (SOD-G93A) group.

A further assay deals with SH—SY5Y cells. Briefly: Neuroprotection against oxygen glucose deprivation (OGD), MTT assay. It counts as cell-based. As to conditions: 4 h OGD, FIG. 1. The protocol: Neuroprotective effect of tetramethylpyrazine (TMP) and derivatives thereof was evaluated by MTT assay. Cells were incubated, log-phase cells were collected, a concentration of a cell suspension was adjusted, an MTT-containing medium was added after chemical treatment and 4 h of incubation with OGD, incubation was conducted for 4 h, the medium in the wells was carefully removed, and 150 μl of dimethyl sulfoxide (DMSO) was added to each well, shaken at a low speed for 10 min on a shaker to fully dissolve crystals, and an absorbance value of each well was measured at an OD (absorbance) value of 490 nm of an enzyme-linked immunosorbent assay instrument (at the same time, a zero adjustment well (medium, MTT, DMSO), a control well (cells, a drug dissolution medium with the same concentration, medium, MTT, DMSO)). Data were presented as mean±SEM; n=8 per group. One-way ANOVA and multiple range test were adopted to show differences between the two groups. a, p<0.001 vs. control group; b, p<0.05 vs. OGD group; c, p<0.001 vs. OGD group.
Background: Formazan colour is commonly taken as a measure of viable cells.

In assay [2] the test system is 6-OHDA Parkinson's disease rats. Briefly: APO-induced rotations in 6-OHDA Parkinson's disease rats. Format: in vivo. As to conditions: APO-induced 6-OHDA rats, 2 weeks of treatment; different dosages of OLB-1, OLB-2; levodopa 25 mg/kg; FIG. 8. The text has this: There is no rotation in a sham-operated group, and there is no significant difference between the groups injected with 6-OHDA, and there are about 180 rotations. […] Data were presented as mean±SEM; n=9-10 per group. One-way ANOVA and multiple range test were adopted to show differences between the two groups. *p<0.05, **p<0.01 vs. before 6-OHDA group.

The subject of assay [3] is db/db mice. Kind of assay: Urinary protein level in db/db mice, 90 d administration. As to conditions: once/d 90 d, OLB-1 11.7 mg/kg, OLB-2 11.67 mg/kg, FIG. 2. It counts as in vivo. On the procedure:
Mice of a normal control group and model mice were given normal saline 10 ml/kg/d, Losartan 10 mg/kg, TMP (5.0 mg/kg, 0.037 mmol/kg), OLB-1 (11.7 mg/kg, 0.037 mmol/kg), and OLB-2 (11.67 mg/kg, […]), at a volume of 10 mL/kg, once/d, for continuous administration of 90 d, urine protein levels were measured after urine collection. Data were presented as mean±SEM; n=6 per group. One-way ANOVA and multiple range test were adopted to show differences between the two groups. a, p<0.05 vs. db/db group; c, p<0.001 vs. db/db group.

Assay [4] deals with db/db mice. Kind of assay: Biochemical and metabolic indicators in db/db mice, 90 d administration. Format: in vivo. As to conditions: once/d 90 d, Losartan 15 mg/kg/d, TMP 5.0 mg/kg, OLB-1 2.31 mg/kg, OLB-2 2.3 mg/kg, mean±SEM, n=6.
The subject of assay [5] is ALS (SOD-G93A) transgenic mice. Kind of assay: Limb grip force test in ALS transgenic mice. It counts as in vivo. As to conditions: different dosages of OLB-1, OLB-2, riluzole 5 mg/kg, FIG. 7. The protocol: The limb grip force test is used directly to assess muscle strength in mice. […] After the start of administration, the grip force of the mice was tested every two weeks, and the measurement was repeated three times for each mouse, and the maximum among the three results was taken as a maximum grip force of the mice. […] Data were presented as mean±SEM; n=10 per group. One-way ANOVA and multiple range test show differences between the two groups. **p<0.01, ***p<0.001 vs. WT (normal control) group; #p<0.05, ##p<0.01 vs. ALS (SOD-G93A) group.

The structures appear in SMILES notation.

With `Cc1nc(C)c(COC(=O)OCCc2ccc(O)cc2)nc1C` [OLB-1], in the assay on 5*FAD mice, the “proinflammatory cytokine IL-1β in hippocampus” value was “significantly reduced” and the “proinflammatory cytokine TNF-α in hippocampus” value was “significantly reduced”. Moreover, the “pole climbing time / symptoms of bradykinesia” value in assay [1] is on record as “significantly improve the symptoms of bradykinesia”. The “death of SH—SY5Y cells caused by OGD” value in the assay with SH—SY5Y cells is given as “significantly reduce the death”. In assay [2], the number of rotations entry is reported as “effectively reduce the number of rotations”. For the same compound, the urinary protein levels entry in the assay with db/db mice [3] is “significantly reduced urinary protein levels”. In the assay with db/db mice [4], the Creatinine is given as 48.7 ± 3.68(a) μmol/L, the Urea was 8.03 ± 0.61(c) mmol/L and the Urine albumin/creatinine is given as 438.69 ± 83.23(c) mg/g. Besides, the limb grip force result in assay [5] was “effectively increase the limb force”.
For the compound `Cc1nc(C)c(CNC(=O)OCCc2ccc(O)cc2)nc1C` [OLB-2], in the assay with 5*FAD mice, the “proinflammatory cytokine IL-1β in hippocampus” value is reported as “significantly reduced” and the “proinflammatory cytokine TNF-α in hippocampus” value is given as “significantly reduced”. The “pole climbing time / symptoms of bradykinesia” value in assay [1] is on record as “significantly improve the symptoms of bradykinesia”. Moreover, in the assay with SH—SY5Y cells, the “death of SH—SY5Y cells caused by OGD” value is recorded as “significantly reduce the death”. Further, the number of rotations entry in assay [2] is “effectively reduce the number of rotations”. For the same compound, in the assay with db/db mice [3], the urinary protein levels result is reported as “significantly reduced urinary protein levels”. Further, in the assay on db/db mice [4], the Creatinine is on record as 46.28 ± 2.76(b) μmol/L, the Urea was 7.48 ± 0.35(c) mmol/L and the Urine albumin/creatinine is 477.51 ± 90.68(c) mg/g. The limb grip force entry in assay [5] is “effectively increase the limb force”.
